Assay results taken from ChEMBL document CHEMBL4507264, “Data for DCP probe BAY-7598” (2021).

Key:
[1] = target: Serine/threonine-protein kinase tousled-like 2 (Homo sapiens) (UniProt Q86UE8); settings: Compound concentration 1000.0 nM
[2] = target: Serine/threonine-protein kinase Chk2 (Homo sapiens) (UniProt O96017); settings: Compound concentration 1000.0 nM
[3] = target: TGF-beta receptor type-1 (Homo sapiens) (UniProt P36897); settings: Compound concentration 1000.0 nM
[4] = target: Phosphorylase b kinase regulatory subunit alpha, liver isoform (Homo sapiens) (UniProt P46019); settings: Compound concentration 1000.0 nM
[5] = target: Serine/threonine-protein kinase/endoribonuclease IRE1 (Homo sapiens) (UniProt O75460); settings: Compound concentration 1000.0 nM
[6] = target: Tyrosine-protein kinase Srms (Homo sapiens) (UniProt Q9H3Y6); settings: Compound concentration 1000.0 nM
[7] = target: Alpha-1B adrenergic receptor (Homo sapiens) (UniProt P35368); settings: Compound concentration 10.0 uM
[8] = target: Beta-adrenergic receptor kinase 1 (Homo sapiens) (UniProt P25098); settings: Compound concentration 1000.0 nM
[9] = target: Platelet-derived growth factor receptor beta (Homo sapiens) (UniProt P09619); settings: Compound concentration 1000.0 nM
[10] = target: Ribosomal protein S6 kinase alpha-4 (Homo sapiens) (UniProt O75676); settings: Compound concentration 1000.0 nM
[11] = target: Serine/threonine-protein kinase N1 (Homo sapiens) (UniProt Q16512); settings: Compound concentration 1000.0 nM
[12] = tested on: Tyrosine-protein kinase ABL1 (Homo sapiens), P00519 [F317L]; settings: Compound concentration 1000.0 nM
[13] = tested on: Receptor-type tyrosine-protein kinase FLT3 (Homo sapiens), P36888 [UNDEFINED MUTATION]; settings: Compound concentration 1000.0 nM
[14] = target: Serine/threonine-protein kinase 10 (Homo sapiens) (UniProt O94804); settings: Compound concentration 1000.0 nM
[15] = tested on: Mast/stem cell growth factor receptor Kit (Homo sapiens), P10721 [V559D,T670I]; settings: Compound concentration 1000.0 nM
[16] = tested on: Epidermal growth factor receptor (Homo sapiens), P00533 [UNDEFINED MUTATION]; settings: Compound concentration 1000.0 nM
[17] = target: Non-receptor tyrosine-protein kinase TYK2 (Homo sapiens) (UniProt P29597); settings: Compound concentration 1000.0 nM
[18] = target: Serine/threonine-protein kinase tousled-like 1 (Homo sapiens) (UniProt Q9UKI8); settings: Compound concentration 1000.0 nM
[19] = target: 5'-AMP-activated protein kinase catalytic subunit alpha-1 (Homo sapiens) (UniProt Q13131); settings: Compound concentration 1000.0 nM
[20] = target: Tyrosine-protein kinase receptor UFO (Homo sapiens) (UniProt P30530); settings: Compound concentration 1000.0 nM
[21] = target: Serine/threonine-protein kinase Nek1 (Homo sapiens) (UniProt Q96PY6); settings: Compound concentration 1000.0 nM
[22] = target: Calcium/calmodulin-dependent protein kinase type II subunit delta (Homo sapiens) (UniProt Q13557); settings: Compound concentration 1000.0 nM
[23] = target: MAP kinase-interacting serine/threonine-protein kinase 1 (Homo sapiens) (UniProt Q9BUB5); settings: Compound concentration 1000.0 nM
[24] = target: Serine/threonine-protein kinase 32A (Homo sapiens) (UniProt Q8WU08); settings: Compound concentration 1000.0 nM
[25] = target: cAMP-dependent protein kinase catalytic subunit PRKX (Homo sapiens) (UniProt P51817); settings: Compound concentration 1000.0 nM
[26] = target: Tyrosine-protein kinase TXK (Homo sapiens) (UniProt P42681); settings: Compound concentration 1000.0 nM
[27] = target: Ephrin type-B receptor 2 (Homo sapiens) (UniProt P29323); settings: Compound concentration 1000.0 nM
[28] = target: GABA-A receptor; anion channel (Rattus norvegicus) (UniProt O09028+P15431+P18506+P18508+P19969+P20236+P23574+P23576+P28471+P28473+P30191+P62813+P63079+P63138+Q91ZM7+Q9ES14); settings: Compound concentration 10.0 uM
[29] = target: Serine/threonine-protein kinase 26 (Homo sapiens) (UniProt Q9P289); settings: Compound concentration 1000.0 nM
[30] = target: Cyclin-dependent kinase 8 (Homo sapiens) (UniProt P49336); settings: Compound concentration 1000.0 nM
[31] = target: Serine/threonine-protein kinase Nek7 (Homo sapiens) (UniProt Q8TDX7); settings: Compound concentration 1000.0 nM
[32] = target: Tyrosine-protein kinase CSK (Homo sapiens) (UniProt P41240); settings: Compound concentration 1000.0 nM
[33] = target: Mitogen-activated protein kinase kinase kinase 11 (Homo sapiens) (UniProt Q16584); settings: Compound concentration 1000.0 nM
[34] = target: Receptor tyrosine-protein kinase erbB-2 (Homo sapiens) (UniProt P04626); settings: Compound concentration 1000.0 nM
[35] = target: Macrophage-stimulating protein receptor (Homo sapiens) (UniProt Q04912); settings: Compound concentration 1000.0 nM
[36] = target: cAMP-dependent protein kinase catalytic subunit alpha (Homo sapiens) (UniProt P17612); settings: Compound concentration 1000.0 nM
[37] = target: Casein kinase I isoform epsilon (Homo sapiens) (UniProt P49674); settings: Compound concentration 1000.0 nM
[38] = target: Vascular endothelial growth factor receptor 1 (Homo sapiens) (UniProt P17948); settings: Compound concentration 1000.0 nM
[39] = target: Rhodopsin kinase GRK1 (Homo sapiens) (UniProt Q15835); settings: Compound concentration 1000.0 nM
[40] = target: Mitogen-activated protein kinase kinase kinase 5 (Homo sapiens) (UniProt Q99683); settings: Compound concentration 1000.0 nM
[41] = tested on: ALK tyrosine kinase receptor (Homo sapiens), Q9UM73 [C1156Y]; settings: Compound concentration 1000.0 nM
[42] = target: Serine/threonine-protein kinase ULK1 (Homo sapiens) (UniProt O75385); settings: Compound concentration 1000.0 nM
[43] = target: Dual specificity tyrosine-phosphorylation-regulated kinase 1B (Homo sapiens) (UniProt Q9Y463); settings: Compound concentration 1000.0 nM
Sequence of Dual specificity tyrosine-phosphorylation-regulated kinase 1B (Homo sapiens) (Q9Y463 whole entry, looked up): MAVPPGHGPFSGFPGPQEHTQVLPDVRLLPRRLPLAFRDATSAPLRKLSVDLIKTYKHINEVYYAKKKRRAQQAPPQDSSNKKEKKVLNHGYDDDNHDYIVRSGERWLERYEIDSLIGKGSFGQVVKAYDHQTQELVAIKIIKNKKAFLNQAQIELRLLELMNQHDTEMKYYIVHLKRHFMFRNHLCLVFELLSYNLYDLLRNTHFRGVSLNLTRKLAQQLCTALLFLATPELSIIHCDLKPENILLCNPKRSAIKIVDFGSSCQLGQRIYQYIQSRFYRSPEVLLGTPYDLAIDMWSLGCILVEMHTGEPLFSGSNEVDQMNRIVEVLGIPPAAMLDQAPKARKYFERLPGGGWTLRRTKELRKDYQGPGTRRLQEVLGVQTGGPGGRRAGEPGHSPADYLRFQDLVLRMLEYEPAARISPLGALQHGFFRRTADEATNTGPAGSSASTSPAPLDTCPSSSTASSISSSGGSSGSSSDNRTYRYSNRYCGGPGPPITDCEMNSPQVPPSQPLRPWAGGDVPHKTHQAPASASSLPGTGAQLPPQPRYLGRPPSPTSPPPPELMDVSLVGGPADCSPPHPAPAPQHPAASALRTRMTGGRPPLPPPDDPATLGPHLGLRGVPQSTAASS

Sequence of Tyrosine-protein kinase receptor UFO (Homo sapiens) (P30530 whole entry): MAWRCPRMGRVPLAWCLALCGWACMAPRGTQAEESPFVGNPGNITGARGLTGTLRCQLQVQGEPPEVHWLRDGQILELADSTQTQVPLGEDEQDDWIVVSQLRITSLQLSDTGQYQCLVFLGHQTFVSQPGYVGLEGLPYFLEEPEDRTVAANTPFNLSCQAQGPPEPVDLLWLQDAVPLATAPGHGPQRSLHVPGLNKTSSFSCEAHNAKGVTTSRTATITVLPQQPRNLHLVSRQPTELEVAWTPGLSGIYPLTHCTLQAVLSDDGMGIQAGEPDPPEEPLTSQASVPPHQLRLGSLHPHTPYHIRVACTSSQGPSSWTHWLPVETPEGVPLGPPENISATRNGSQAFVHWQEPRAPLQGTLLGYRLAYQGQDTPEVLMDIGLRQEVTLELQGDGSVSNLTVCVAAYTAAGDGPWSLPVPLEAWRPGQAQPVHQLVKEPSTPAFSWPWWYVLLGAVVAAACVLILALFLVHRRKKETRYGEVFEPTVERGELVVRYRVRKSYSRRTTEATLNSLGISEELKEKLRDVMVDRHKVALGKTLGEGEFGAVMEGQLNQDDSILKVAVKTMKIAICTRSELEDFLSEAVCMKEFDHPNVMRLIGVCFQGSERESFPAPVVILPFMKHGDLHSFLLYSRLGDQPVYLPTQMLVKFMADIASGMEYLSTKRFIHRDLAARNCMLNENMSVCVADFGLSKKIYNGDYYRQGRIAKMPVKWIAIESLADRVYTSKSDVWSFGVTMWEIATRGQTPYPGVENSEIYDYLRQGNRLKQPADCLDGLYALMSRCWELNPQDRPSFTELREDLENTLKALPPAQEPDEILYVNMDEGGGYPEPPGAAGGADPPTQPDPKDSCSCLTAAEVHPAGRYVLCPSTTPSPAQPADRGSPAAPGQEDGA
Sequence of Vascular endothelial growth factor receptor 1 (Homo sapiens) (P17948 whole entry): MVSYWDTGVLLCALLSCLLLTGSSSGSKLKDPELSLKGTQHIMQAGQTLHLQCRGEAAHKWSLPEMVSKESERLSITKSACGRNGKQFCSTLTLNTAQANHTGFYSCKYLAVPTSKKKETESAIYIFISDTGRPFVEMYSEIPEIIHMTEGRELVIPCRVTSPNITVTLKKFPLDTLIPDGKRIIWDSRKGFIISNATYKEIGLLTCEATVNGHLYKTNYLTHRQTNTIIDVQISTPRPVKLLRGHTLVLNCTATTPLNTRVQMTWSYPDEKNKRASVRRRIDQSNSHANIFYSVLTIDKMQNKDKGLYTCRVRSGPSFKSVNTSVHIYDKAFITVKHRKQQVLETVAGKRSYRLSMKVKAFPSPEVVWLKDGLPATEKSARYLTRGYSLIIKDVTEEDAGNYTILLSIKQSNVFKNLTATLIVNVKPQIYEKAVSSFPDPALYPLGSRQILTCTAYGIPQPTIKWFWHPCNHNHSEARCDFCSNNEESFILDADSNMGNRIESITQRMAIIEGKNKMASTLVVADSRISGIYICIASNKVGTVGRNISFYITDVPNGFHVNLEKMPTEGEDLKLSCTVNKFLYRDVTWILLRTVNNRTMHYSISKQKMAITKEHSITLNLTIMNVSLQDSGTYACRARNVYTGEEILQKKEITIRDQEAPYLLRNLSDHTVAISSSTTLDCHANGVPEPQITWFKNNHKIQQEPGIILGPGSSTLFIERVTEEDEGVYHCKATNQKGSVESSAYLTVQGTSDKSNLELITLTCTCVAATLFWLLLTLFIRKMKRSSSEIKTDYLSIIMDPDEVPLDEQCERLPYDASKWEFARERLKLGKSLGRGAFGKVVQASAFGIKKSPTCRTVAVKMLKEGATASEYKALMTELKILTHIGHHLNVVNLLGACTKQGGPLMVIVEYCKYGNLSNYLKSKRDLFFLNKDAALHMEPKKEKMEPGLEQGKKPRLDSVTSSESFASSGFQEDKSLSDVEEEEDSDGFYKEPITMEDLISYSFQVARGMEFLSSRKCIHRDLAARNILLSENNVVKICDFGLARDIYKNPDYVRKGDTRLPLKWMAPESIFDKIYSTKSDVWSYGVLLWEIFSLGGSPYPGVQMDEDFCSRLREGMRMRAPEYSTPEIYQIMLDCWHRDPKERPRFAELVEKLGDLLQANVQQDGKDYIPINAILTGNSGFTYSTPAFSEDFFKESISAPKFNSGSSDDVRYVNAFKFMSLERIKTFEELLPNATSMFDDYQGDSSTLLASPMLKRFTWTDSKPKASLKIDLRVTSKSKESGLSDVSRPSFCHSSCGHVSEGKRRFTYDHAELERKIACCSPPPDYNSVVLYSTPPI
Sequence of Tyrosine-protein kinase Srms (Homo sapiens) (Q9H3Y6 whole entry): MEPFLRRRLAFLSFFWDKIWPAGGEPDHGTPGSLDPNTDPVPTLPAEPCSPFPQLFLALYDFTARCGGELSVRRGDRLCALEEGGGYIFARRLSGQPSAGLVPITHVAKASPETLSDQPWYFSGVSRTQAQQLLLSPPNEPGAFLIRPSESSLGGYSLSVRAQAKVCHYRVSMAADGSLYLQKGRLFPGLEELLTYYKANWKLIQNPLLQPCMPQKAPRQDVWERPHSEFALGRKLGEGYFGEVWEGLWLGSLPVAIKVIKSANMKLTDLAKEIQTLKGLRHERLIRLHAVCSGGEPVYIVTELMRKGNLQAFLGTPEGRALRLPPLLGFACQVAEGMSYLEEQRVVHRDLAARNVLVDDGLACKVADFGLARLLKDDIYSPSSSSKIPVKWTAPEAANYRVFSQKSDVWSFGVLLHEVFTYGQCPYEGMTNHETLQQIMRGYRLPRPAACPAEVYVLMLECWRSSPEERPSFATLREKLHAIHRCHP
Sequence of Macrophage-stimulating protein receptor (Homo sapiens) (Q04912 25-304 limits assumed): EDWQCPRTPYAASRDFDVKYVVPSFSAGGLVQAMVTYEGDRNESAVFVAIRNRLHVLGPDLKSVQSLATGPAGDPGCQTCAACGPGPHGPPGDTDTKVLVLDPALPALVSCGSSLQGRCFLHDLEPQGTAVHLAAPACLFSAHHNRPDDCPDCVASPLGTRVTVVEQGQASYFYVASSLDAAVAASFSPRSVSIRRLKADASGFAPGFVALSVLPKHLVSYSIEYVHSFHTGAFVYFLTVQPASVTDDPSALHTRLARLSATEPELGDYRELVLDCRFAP
Sequence of Macrophage-stimulating protein receptor (Homo sapiens) (Q04912 310-1400 limits assumed): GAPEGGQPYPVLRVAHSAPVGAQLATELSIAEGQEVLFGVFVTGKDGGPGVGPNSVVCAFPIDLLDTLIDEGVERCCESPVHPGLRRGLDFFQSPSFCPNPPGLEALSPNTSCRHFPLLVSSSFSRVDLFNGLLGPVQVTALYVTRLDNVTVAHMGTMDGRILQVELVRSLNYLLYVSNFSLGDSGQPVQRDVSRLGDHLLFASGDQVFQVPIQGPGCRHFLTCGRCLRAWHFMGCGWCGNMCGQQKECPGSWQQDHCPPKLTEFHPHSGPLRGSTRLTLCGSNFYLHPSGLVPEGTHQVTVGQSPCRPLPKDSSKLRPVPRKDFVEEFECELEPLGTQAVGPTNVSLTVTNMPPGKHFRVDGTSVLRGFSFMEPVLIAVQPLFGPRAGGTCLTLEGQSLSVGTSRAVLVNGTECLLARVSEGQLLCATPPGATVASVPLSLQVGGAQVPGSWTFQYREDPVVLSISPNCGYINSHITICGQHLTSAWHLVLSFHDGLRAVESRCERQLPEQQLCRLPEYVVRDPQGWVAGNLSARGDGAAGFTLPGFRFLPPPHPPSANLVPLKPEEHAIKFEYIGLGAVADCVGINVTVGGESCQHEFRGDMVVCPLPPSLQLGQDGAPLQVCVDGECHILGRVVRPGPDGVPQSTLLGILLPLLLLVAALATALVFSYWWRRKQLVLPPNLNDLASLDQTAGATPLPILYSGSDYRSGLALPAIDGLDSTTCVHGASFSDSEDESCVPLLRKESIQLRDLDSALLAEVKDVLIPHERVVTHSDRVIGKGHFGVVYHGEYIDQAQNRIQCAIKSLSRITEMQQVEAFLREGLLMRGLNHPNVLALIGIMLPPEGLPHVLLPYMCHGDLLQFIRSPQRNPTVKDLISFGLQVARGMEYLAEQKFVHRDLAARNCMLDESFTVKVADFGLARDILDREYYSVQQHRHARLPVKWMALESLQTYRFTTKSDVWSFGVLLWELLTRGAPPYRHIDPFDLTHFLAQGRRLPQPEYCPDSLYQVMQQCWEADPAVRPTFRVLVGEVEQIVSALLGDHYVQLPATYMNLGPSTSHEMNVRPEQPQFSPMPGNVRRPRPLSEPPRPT
Sequence of cAMP-dependent protein kinase catalytic subunit PRKX (Homo sapiens) (P51817 whole entry): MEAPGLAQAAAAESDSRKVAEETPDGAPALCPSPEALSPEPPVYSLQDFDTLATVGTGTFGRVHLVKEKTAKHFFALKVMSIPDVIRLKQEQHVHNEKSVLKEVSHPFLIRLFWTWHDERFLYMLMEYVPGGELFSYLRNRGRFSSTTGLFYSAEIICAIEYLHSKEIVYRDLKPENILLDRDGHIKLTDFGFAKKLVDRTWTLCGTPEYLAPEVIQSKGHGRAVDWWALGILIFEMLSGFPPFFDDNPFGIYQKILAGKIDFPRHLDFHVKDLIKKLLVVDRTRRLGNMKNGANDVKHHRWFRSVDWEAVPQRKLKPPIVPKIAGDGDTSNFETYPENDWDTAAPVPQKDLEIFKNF

O=C(O)[C@@H]1[C@@H](Cn2nnc3ccccc3c2=O)CC[C@H]1C(=O)c1ccc(OCCC2CCOCC2)cc1 [BAY-694]
inactive: residual activity [1] 93% | residual activity [2] 100% | residual activity [3] 100% | residual activity [4] 100% | residual activity [5] 88% | residual activity [6] 100% | inhibition [7] 6.29% | residual activity [8] 78% | residual activity [9] 100% | residual activity [10] 85% | residual activity [11] 97% | residual activity [12] 86% | residual activity [13] 100% | residual activity [14] 84% | residual activity [15] 98% | residual activity [16] 58% | residual activity [17] 100% | residual activity [18] 100% | residual activity [19] 100% | residual activity [20] 100% | residual activity [21] 100% | residual activity [22] 100% | residual activity [23] 93% | residual activity [24] 92% | residual activity [25] 100% | residual activity [26] 94% | residual activity [27] 100% | inhibition [28] 13.1% | residual activity [29] 100% | residual activity [30] 91% | residual activity [31] 100% | residual activity [32] 90% | residual activity [33] 92% | residual activity [34] 100% | residual activity [35] 91% | residual activity [36] 90% | residual activity [37] 90% | residual activity [38] 100% | residual activity [39] 100% | residual activity [40] 94% | residual activity [41] 100% | residual activity [42] 100% | residual activity [43] 86%

O=C(O)[C@H]1[C@H](Cn2nnc3ccccc3c2=O)CC[C@@H]1C(=O)c1ccc(OCCC2CCOCC2)cc1 [BAY-7598]
inactive: residual activity [1] 98% | residual activity [2] 100% | residual activity [3] 90% | residual activity [4] 100% | residual activity [5] 82% | residual activity [6] 100% | inhibition [7] 7.47% | residual activity [8] 61% | residual activity [9] 88% | residual activity [10] 97% | residual activity [11] 88% | residual activity [12] 75% | residual activity [13] 83% | residual activity [14] 100% | residual activity [15] 69% | residual activity [16] 65% | residual activity [17] 100% | residual activity [18] 96% | residual activity [19] 100% | residual activity [20] 100% | residual activity [21] 82% | residual activity [22] 86% | residual activity [23] 96% | residual activity [24] 88% | residual activity [25] 93% | residual activity [26] 100% | residual activity [27] 100% | inhibition [28] 6.48% | residual activity [29] 87% | residual activity [30] 100% | residual activity [31] 100% | residual activity [32] 100% | residual activity [33] 92% | residual activity [34] 100% | residual activity [35] 96% | residual activity [36] 97% | residual activity [37] 100% | residual activity [38] 96% | residual activity [39] 97% | residual activity [40] 95% | residual activity [41] 100% | residual activity [42] 95% | residual activity [43] 100%
